Data from patent publication US20120270929A1, “MODULATION OF TTC39 EXPRESSION TO INCREASE HDL” (ISIS Pharmaceuticals, Inc., priority 2009, published 2012).
Oligonucleotides are written 5' to 3', each unit as a sugar letter and its base; * is a phosphorothioate linkage, no mark a phosphodiester; rarer units and linkages stand in square brackets, end groups in braces. Plain capitals give the bases only. e = 2'-O-(2-methoxyethyl) (MOE); [5mC] = 5-methylcytosine; d = 2'-deoxy (DNA)

Columns and labels:
[1] = test system: murine TTC39B mRNA; assay: Dose-dependent antisense inhibition of murine TTC39B in mouse primary hepatocytes (Example 2); type: cell-based; settings: cytofectin, ~16 h
Experimental: Cells were plated at a density of 10,000 cells per well and transfected using cytofectin reagent with 25 nM, 50 nM, 100 nM, and 200 nM concentrations of antisense oligonucleotide, as specified in Table 3. After a treatment period of approximately 16 hours, RNA was isolated from the cells and TTC39B mRNA levels were measured by quantitative real-time PCR. Murine primer probe set mTtc39b_LTS00287 (forward sequence: […], incorporated herein as SEQ ID NO: 94; reverse sequence: […], incorporated herein as SEQ ID NO: 95; probe sequence: […], incorporated herein as SEQ ID NO: 96) was used to measure mRNA levels. TTC39B mRNA levels were adjusted according to total RNA content, as measured by RIBOGREEN®. Results are presented as percent inhibition of TTC39B, relative to untreated control cells.

[2] = test system: murine TTC39B mRNA; assay: Antisense inhibition of murine TTC39B in mouse primary hepatocytes, single dose; type: cell-based; settings: 100 nM, cytofectin, ~24 h, vs untreated control
Experimental: Antisense oligonucleotides targeted to a TTC39B nucleic acid were tested for their effects on TTC39B mRNA in vitro. Cultured mouse primary hepatocytes at a density of 10,000 cells per well were transfected using cytofectin reagent with 100 nM antisense oligonucleotide. After a treatment period of approximately 24 hours, RNA was isolated from the cells and TTC39B mRNA levels were measured by quantitative real-time PCR. TTC39B mRNA levels were adjusted according to total RNA content, as measured by RIBOGREEN®. Results are presented as percent inhibition of TTC39B, relative to untreated control cells.
The chimeric antisense oligonucleotides in Tables 1 and 2 were designed as 5-10-5 MOE gapmers. The gapmers are 20 nucleotides in length, wherein the central gap segment is comprised of 10 2′-deoxynucleotides and is flanked on both sides (in the 5′ and 3′ directions) by wings comprising 5 nucleotides each. Each nucleotide in the 5′ wing segment and each nucleotide in the 3′ wing segment has a 2′-MOE modification. The internucleoside linkages throughout each gapmer are phosphorothioate (P═S) linkages. All cytosine residues throughout each gapmer are 5-methylcytosines. “Target start site” indicates the 5′-most nucleotide to which the gapmer is targeted. “Target stop site” indicates the 3′-most nucleotide to which the gapmer is targeted. Each gapmer listed in Table 1 is targeted to SEQ ID NO: 6 (GENBANK Accession No. NM_027238.2) and each gapmer listed in Table 2 is targeted to SEQ ID NO: 10 (the complement of GENBANK Accession No. NT—039260.7 truncated at nucleotides 22491001 to 22601000), SEQ ID NO: 11 (GENBANK Accession No. BY244623.1), SEQ ID NO: 12 (GENBANK Accession No. BY260936), SEQ ID NO: 13 (GENBANK Accession No. BM935568.1) or SEQ ID NO: 14 (GENBANK Accession No. BY728780.1).

[3] = gapmers targeted to SEQ ID NO: 6
[4] = gapmers targeted to SEQ ID NO: 10-14

| Sequence | % inhibition of murine TTC39B mRNA [2, 3] | % inhibition of murine TTC39B mRNA [2, 4] | other results |
| --- | --- | --- | --- |
| AATGCCACCACCTTCAACCA (antisense eA*eA*eT*eG*e[5mC]*d[5mC]*dA*d[5mC]*d[5mC]*dA*d[5mC]*d[5mC]*dT*dT*d[5mC]*eA*eA*e[5mC]*e[5mC]*eA) [ISIS 447138] | 65% | – | percent inhibition of TTC39B mRNA ([1]; 25 nM): 20%; percent inhibition of TTC39B mRNA ([1]; 50 nM): 49%; percent inhibition of TTC39B mRNA ([1]; 100 nM): 68%; percent inhibition of TTC39B mRNA ([1]; 200 nM): 86% |
| ATGCCATTCTGGATGTCCTG (antisense eA*eT*eG*e[5mC]*e[5mC]*dA*dT*dT*d[5mC]*dT*dG*dG*dA*dT*dG*eT*e[5mC]*e[5mC]*eT*eG) [ISIS 447106] | 70% | – | percent inhibition of TTC39B mRNA ([1]; 25 nM): 41%; percent inhibition of TTC39B mRNA ([1]; 50 nM): 55%; percent inhibition of TTC39B mRNA ([1]; 100 nM): 78%; percent inhibition of TTC39B mRNA ([1]; 200 nM): 87% |
| GCCAGCCAGGGCAGGCACTC (antisense eG*e[5mC]*e[5mC]*eA*eG*d[5mC]*d[5mC]*dA*dG*dG*dG*d[5mC]*dA*dG*dG*e[5mC]*eA*e[5mC]*eT*e[5mC]) [ISIS 447163] | – | 50% | – |
| GCCCATGCACGGGTGGAGGA (antisense eG*e[5mC]*e[5mC]*e[5mC]*eA*dT*dG*d[5mC]*dA*d[5mC]*dG*dG*dG*dT*dG*eG*eA*eG*eG*eA) [ISIS 447156] | – | 16% | – |
| GCGCCTTCCCGGAGCTGCAG (antisense eG*e[5mC]*eG*e[5mC]*e[5mC]*dT*dT*d[5mC]*d[5mC]*d[5mC]*dG*dG*dA*dG*d[5mC]*eT*eG*e[5mC]*eA*eG) [ISIS 447116] | 56% | – | – |
| GCTTACCTTGGACCATTTAC (eG*e[5mC]*eT*eT*eA*d[5mC]*d[5mC]*dT*dT*dG*dG*dA*d[5mC]*d[5mC]*dA*eT*eT*eT*eA*e[5mC]; antisense) [ISIS 447173] | – | 59% | – |
| GGAGATGTGTGTACGGCAGC (antisense eG*eG*eA*eG*eA*dT*dG*dT*dG*dT*dG*dT*dA*d[5mC]*dG*eG*e[5mC]*eA*eG*e[5mC]) [ISIS 447161] | – | 14% | – |
| GGCAGAGTATAAGAATTTCT (antisense eG*eG*e[5mC]*eA*eG*dA*dG*dT*dA*dT*dA*dA*dG*dA*dA*eT*eT*eT*e[5mC]*eT) [ISIS 447133] | 56% | – | – |
| GGCTCTGGGTTCAGCCCAGC (antisense eG*eG*e[5mC]*eT*e[5mC]*dT*dG*dG*dG*dT*dT*d[5mC]*dA*dG*d[5mC]*e[5mC]*e[5mC]*eA*eG*e[5mC]) [ISIS 447098] | 44% | – | – |
| GGTGCCCGGACCAGCCCGCT (antisense eG*eG*eT*eG*e[5mC]*d[5mC]*d[5mC]*dG*dG*dA*d[5mC]*d[5mC]*dA*dG*d[5mC]*e[5mC]*e[5mC]*eG*e[5mC]*eT) [ISIS 447158] | – | 39% | – |
| GTCCGATGGAGATCTAGAGA (antisense eG*eT*e[5mC]*e[5mC]*eG*dA*dT*dG*dG*dA*dG*dA*dT*d[5mC]*dT*eA*eG*eA*eG*eA) [ISIS 447102] | 84% | – | – |
| GTTCCGGATCAGTCCGTGGA (antisense eG*eT*eT*e[5mC]*e[5mC]*dG*dG*dA*dT*d[5mC]*dA*dG*dT*d[5mC]*d[5mC]*eG*eT*eG*eG*eA) [ISIS 447132] | 58% | – | – |
| GTTTCTTGAGCCTATAAGTC (eG*eT*eT*eT*e[5mC]*dT*dT*dG*dA*dG*d[5mC]*d[5mC]*dT*dA*dT*eA*eA*eG*eT*e[5mC]; antisense) [ISIS 447172] | – | 54% | – |
| GTTTTTCACTTTCCACAACG (antisense eG*eT*eT*eT*eT*dT*d[5mC]*dA*d[5mC]*dT*dT*dT*d[5mC]*d[5mC]*dA*e[5mC]*eA*eA*e[5mC]*eG) [ISIS 447128] | 56% | – | – |
| TACAGACCATGAGCTTTGAT (antisense eT*eA*e[5mC]*eA*eG*dA*d[5mC]*d[5mC]*dA*dT*dG*dA*dG*d[5mC]*dT*eT*eT*eG*eA*eT) [ISIS 447145] | 61% | – | – |
| TAGTAATACGCCTGCATCCA (antisense eT*eA*eG*eT*eA*dA*dT*dA*d[5mC]*dG*d[5mC]*d[5mC]*dT*dG*d[5mC]*eA*eT*e[5mC]*e[5mC]*eA) [ISIS 447121] | 53% | – | – |

| Sequence | % inhibition of murine TTC39B mRNA [2, 3] | % inhibition of murine TTC39B mRNA [2, 4] | other results |
| --- | --- | --- | --- |
| TATGGAGAAGCAGATGGCCT (eT*eA*eT*eG*eG*dA*dG*dA*dA*dG*d[5mC]*dA*dG*dA*dT*eG*eG*e[5mC]*e[5mC]*eT; antisense) [ISIS 447175] | – | 56% | – |
| TCATATTTTCATCCTGCACA (antisense eT*e[5mC]*eA*eT*eA*dT*dT*dT*dT*d[5mC]*dA*dT*d[5mC]*d[5mC]*dT*eG*e[5mC]*eA*e[5mC]*eA) [ISIS 447109] | 41% | – | – |
| TCCAAGGCATCTTCAAAGAT (antisense eT*e[5mC]*e[5mC]*eA*eA*dG*dG*d[5mC]*dA*dT*d[5mC]*dT*dT*d[5mC]*dA*eA*eA*eG*eA*eT) [ISIS 447101] | 36% | – | – |
| TCCACCTTGGCTGATGAACC (antisense eT*e[5mC]*e[5mC]*eA*e[5mC]*d[5mC]*dT*dT*dG*dG*d[5mC]*dT*dG*dA*dT*eG*eA*eA*e[5mC]*e[5mC]) [ISIS 447104] | 48% | – | – |
| TCCACTCGGCTGCCCACGAG (antisense eT*e[5mC]*e[5mC]*eA*e[5mC]*dT*d[5mC]*dG*dG*d[5mC]*dT*dG*d[5mC]*d[5mC]*d[5mC]*eA*e[5mC]*eG*eA*eG) [ISIS 447100] | 62% | – | – |
| TCCAGAGATGAAGAGCTGCT (antisense eT*e[5mC]*e[5mC]*eA*eG*dA*dG*dA*dT*dG*dA*dA*dG*dA*dG*e[5mC]*eT*eG*e[5mC]*eT) [ISIS 447131] | 60% | – | – |
| TCCAGATCATTATGTTTACA (eT*e[5mC]*e[5mC]*eA*eG*dA*dT*d[5mC]*dA*dT*dT*dA*dT*dG*dT*eT*eT*eA*e[5mC]*eA; antisense) [ISIS 447174] | – | 50% | – |
| TCCGGTGCGCACCCAGTACC (antisense eT*e[5mC]*e[5mC]*eG*eG*dT*dG*d[5mC]*dG*d[5mC]*dA*d[5mC]*d[5mC]*d[5mC]*dA*eG*eT*eA*e[5mC]*e[5mC]) [ISIS 447155] | – | 23% | – |
| TCTGGAAGCATGCTCAAAAT (antisense eT*e[5mC]*eT*eG*eG*dA*dA*dG*d[5mC]*dA*dT*dG*d[5mC]*dT*d[5mC]*eA*eA*eA*eA*eT) [ISIS 447124] | 60% | – | – |
| TCTTCACTCAGTTGTTCCAG (antisense eT*e[5mC]*eT*eT*e[5mC]*dA*d[5mC]*dT*d[5mC]*dA*dG*dT*dT*dG*dT*eT*e[5mC]*e[5mC]*eA*eG) [ISIS 447108] | 49% | – | – |
| TGTCCGATGGAGATTGTTAA (antisense eT*eG*eT*e[5mC]*e[5mC]*dG*dA*dT*dG*dG*dA*dG*dA*dT*dT*eG*eT*eT*eA*eA) [ISIS 447164] | – | 0% | – |
| TGTTTCCAGAAAATCCAATA (antisense eT*eG*eT*eT*eT*d[5mC]*d[5mC]*dA*dG*dA*dA*dA*dA*dT*d[5mC]*e[5mC]*eA*eA*eT*eA) [ISIS 447115] | 56% | – | – |
| TTATACAAAAATGCCAACTC (antisense eT*eT*eA*eT*eA*d[5mC]*dA*dA*dA*dA*dA*dT*dG*d[5mC]*d[5mC]*eA*eA*e[5mC]*eT*e[5mC]) [ISIS 447129] | 34% | – | – |
| TTCCAGCTCGGCTGCGCCAC (antisense eT*eT*e[5mC]*e[5mC]*eA*dG*d[5mC]*dT*d[5mC]*dG*dG*d[5mC]*dT*dG*d[5mC]*eG*e[5mC]*e[5mC]*eA*e[5mC]) [ISIS 447157] | – | 21% | – |
| TTCTTACAAACATCCTAAGA (antisense eT*eT*e[5mC]*eT*eT*dA*d[5mC]*dA*dA*dA*d[5mC]*dA*dT*d[5mC]*d[5mC]*eT*eA*eA*eG*eA) [ISIS 447148] | 54% | – | – |
| TTTGGCAGGTTTGTAAAGCG (antisense eT*eT*eT*eG*eG*d[5mC]*dA*dG*dG*dT*dT*dT*dG*dT*dA*eA*eA*eG*e[5mC]*eG) [ISIS 447107] | 61% | – | – |
